The source of these data is ChEMBL document CHEMBL5465560, “Selectivity Literature for EUbOPEN Chemogenomic Library” (2024).

Assay [1] addresses Serine/threonine-protein kinase 16 (Homo sapiens, UniProt O75716). Particulars: at 10 µM.
The target in assay [2] is Serine/threonine-protein kinase SIK3 (Homo sapiens) (UniProt Q9Y2K2). Description: Selectivity interaction (KinomeScan (DiscoverX)) EUB0000695a SIK3. The following applies: at 100 nM.
Assay [3] concerns the target Tyrosine-protein kinase Fgr (Homo sapiens) (UniProt P09769). Description: Selectivity interaction (ActivX KiNativ screen (kinase selectivity in THP-1 cell lysates)) EUB0000639a FGR. In kind it is subcellular. Particulars: lysate.
For assay [4], the target named is Serine/threonine-protein kinase PRP4 homolog (Homo sapiens) (UniProt Q13523). Description: Selectivity interaction (KinomeScan (DiscoverX)) EUB0000045b PRPF4B.
Chain of Serine/threonine-protein kinase PRP4 homolog (Homo sapiens) (Q13523 whole entry): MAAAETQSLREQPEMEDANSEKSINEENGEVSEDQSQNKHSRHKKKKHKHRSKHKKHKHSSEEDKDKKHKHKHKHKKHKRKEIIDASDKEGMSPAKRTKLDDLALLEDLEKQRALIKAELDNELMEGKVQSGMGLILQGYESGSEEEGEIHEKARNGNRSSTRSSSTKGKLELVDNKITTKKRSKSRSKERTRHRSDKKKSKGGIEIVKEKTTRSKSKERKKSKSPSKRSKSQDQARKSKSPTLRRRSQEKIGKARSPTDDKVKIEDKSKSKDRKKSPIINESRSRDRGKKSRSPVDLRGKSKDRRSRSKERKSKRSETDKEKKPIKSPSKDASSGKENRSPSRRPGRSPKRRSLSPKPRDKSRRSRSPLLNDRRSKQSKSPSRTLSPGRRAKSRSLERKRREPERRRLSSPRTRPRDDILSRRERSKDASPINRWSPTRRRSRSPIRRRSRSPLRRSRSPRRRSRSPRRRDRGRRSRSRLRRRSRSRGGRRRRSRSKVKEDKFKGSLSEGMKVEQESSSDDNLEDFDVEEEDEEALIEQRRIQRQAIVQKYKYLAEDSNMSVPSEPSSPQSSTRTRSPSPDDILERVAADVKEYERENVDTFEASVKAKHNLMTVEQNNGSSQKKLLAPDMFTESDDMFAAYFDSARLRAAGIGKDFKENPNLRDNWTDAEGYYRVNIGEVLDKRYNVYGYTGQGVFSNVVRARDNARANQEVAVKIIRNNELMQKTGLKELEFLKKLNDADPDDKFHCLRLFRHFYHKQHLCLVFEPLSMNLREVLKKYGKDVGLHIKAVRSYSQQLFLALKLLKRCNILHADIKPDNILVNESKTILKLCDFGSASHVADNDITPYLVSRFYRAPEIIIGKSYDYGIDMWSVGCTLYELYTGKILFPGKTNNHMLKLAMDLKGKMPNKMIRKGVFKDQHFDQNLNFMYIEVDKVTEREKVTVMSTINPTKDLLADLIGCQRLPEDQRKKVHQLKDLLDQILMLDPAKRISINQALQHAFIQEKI
In assay [5] the target is Non-receptor tyrosine-protein kinase TYK2 (Homo sapiens, UniProt P29597). Description: Selectivity interaction (KinomeScan (DiscoverX)) EUB0000045b TYK2. The following applies: at 10 µM.
Chain of Non-receptor tyrosine-protein kinase TYK2 (P29597 whole entry): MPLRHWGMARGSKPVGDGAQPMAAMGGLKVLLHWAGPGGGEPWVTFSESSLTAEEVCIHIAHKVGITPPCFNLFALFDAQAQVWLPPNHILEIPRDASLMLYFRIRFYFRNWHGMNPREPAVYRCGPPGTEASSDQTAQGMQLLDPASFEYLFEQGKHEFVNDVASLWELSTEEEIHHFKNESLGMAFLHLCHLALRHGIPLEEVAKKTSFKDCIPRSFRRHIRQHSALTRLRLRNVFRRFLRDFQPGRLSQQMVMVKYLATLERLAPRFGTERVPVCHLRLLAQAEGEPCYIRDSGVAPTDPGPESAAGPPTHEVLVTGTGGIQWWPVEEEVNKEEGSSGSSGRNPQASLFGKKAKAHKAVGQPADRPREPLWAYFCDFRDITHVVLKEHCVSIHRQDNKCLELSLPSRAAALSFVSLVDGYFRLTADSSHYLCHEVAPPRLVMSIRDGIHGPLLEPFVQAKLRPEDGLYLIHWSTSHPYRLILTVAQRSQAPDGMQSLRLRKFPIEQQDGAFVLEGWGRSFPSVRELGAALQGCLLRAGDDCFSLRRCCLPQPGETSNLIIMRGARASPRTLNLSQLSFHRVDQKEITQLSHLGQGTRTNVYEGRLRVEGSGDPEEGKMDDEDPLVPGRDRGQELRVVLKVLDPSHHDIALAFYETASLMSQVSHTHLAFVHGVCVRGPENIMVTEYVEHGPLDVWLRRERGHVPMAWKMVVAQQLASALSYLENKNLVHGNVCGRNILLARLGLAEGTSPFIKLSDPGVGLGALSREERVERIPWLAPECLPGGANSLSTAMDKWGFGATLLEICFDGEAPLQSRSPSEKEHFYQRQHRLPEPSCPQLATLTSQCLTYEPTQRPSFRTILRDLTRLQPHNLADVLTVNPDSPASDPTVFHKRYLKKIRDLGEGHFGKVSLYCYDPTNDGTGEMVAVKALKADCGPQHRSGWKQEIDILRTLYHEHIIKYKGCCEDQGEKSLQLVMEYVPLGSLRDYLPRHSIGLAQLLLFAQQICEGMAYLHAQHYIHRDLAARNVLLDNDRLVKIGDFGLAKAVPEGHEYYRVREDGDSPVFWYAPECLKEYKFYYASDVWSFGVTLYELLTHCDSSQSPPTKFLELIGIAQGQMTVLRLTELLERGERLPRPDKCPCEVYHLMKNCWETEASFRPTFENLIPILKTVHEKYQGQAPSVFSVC
For assay [6], the target named is T1, Histone-lysine N-methyltransferase NSD3 (Homo sapiens) (UniProt Q9BZ95).
T1 sequence (whole entry): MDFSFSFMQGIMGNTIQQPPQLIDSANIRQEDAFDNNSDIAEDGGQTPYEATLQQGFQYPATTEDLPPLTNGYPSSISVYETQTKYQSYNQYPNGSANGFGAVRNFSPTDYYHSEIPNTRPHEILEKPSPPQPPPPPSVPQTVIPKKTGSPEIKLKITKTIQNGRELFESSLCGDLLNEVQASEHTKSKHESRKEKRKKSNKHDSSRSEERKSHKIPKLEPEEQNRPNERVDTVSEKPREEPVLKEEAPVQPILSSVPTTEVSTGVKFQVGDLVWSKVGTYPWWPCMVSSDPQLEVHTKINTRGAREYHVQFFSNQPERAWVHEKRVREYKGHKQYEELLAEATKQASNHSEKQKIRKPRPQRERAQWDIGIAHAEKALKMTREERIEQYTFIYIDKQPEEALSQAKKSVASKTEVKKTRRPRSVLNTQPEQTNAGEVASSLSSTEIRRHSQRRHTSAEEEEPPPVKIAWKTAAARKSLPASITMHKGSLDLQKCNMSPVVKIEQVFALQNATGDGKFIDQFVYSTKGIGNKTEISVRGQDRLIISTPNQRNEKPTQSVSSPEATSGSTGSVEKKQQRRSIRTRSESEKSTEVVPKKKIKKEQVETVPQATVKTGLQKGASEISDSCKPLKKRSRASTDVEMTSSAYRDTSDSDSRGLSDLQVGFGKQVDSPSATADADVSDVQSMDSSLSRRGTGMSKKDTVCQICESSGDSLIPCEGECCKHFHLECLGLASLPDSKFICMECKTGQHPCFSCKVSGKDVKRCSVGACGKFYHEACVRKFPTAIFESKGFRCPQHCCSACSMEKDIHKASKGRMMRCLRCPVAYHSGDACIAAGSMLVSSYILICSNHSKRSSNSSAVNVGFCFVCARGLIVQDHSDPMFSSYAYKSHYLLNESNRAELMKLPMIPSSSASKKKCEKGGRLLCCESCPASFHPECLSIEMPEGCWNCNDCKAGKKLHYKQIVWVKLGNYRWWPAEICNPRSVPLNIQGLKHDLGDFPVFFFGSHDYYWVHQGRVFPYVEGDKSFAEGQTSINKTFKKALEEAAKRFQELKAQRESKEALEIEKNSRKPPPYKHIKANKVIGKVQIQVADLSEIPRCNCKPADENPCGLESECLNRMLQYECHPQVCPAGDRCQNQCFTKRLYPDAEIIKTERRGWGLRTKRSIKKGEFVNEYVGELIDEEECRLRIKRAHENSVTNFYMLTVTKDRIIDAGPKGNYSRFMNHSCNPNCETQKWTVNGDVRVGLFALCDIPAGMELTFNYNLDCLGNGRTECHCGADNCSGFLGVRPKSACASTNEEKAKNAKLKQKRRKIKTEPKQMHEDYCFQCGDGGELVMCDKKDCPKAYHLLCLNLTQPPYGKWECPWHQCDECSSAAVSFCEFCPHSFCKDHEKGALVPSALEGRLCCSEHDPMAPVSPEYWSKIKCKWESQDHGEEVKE
Kind of assay: Selectivity interaction (PWWP, WD40, and Tudor domain panel (DSLS measurements, literature)) EUB0000270b NSD3.

Assay [7] addresses Transcription intermediary factor 1-alpha (Homo sapiens) (UniProt O15164). Kind of assay: Selectivity interaction (Human bromodomain panel (DSF assay)) EUB0000233b TRIM24. On the technique in general: DSF heats the sample and reads unfolding from a dye or from intrinsic fluorescence.
The target of assay [8] is T2, Mitogen-activated protein kinase kinase kinase kinase 3 (Homo sapiens) (UniProt Q8IVH8).
T2 sequence (whole entry): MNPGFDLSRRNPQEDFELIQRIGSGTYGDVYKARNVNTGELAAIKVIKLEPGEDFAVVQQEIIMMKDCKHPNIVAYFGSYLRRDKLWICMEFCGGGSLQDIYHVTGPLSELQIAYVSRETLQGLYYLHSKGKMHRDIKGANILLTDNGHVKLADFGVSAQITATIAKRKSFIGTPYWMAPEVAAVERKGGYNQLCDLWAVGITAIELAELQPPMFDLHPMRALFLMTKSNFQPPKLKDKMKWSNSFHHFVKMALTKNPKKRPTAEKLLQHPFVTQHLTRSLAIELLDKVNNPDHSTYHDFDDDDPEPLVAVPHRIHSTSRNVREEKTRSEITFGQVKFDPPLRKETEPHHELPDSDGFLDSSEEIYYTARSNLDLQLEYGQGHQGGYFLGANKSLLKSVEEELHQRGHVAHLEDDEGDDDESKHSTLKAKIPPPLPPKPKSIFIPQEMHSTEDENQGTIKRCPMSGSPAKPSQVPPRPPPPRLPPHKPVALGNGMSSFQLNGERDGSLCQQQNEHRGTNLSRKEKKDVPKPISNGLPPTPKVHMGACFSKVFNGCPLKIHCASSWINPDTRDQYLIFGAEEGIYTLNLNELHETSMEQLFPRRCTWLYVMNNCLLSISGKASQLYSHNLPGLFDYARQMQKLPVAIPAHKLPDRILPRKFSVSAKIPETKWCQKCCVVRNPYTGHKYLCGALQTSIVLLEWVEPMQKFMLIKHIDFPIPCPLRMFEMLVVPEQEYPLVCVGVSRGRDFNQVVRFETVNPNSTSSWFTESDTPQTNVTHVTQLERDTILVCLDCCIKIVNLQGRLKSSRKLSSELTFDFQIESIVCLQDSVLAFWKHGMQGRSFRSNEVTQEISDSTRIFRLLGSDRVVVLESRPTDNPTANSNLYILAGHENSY
Description: Selectivity interaction (KinomeScan (DiscoverX)) EUB0000229b MAP4K3. The following applies: at 10 µM.

Chain of Tyrosine-protein kinase Fgr (Homo sapiens) (P09769 2-529 limits assumed): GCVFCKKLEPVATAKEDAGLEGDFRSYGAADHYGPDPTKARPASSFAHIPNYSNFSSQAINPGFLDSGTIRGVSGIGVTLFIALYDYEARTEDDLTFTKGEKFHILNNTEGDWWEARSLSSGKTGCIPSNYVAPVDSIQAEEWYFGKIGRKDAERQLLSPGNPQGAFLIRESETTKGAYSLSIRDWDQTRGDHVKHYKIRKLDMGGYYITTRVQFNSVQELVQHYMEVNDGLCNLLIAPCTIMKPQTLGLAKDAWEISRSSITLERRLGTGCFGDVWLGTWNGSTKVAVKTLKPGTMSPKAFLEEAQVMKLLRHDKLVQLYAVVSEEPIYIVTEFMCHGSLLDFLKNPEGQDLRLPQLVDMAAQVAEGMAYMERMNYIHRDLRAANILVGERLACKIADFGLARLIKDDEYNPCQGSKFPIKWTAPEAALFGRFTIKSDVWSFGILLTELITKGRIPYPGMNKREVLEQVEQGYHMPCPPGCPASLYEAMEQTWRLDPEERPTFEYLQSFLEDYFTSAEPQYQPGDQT
Chain of Serine/threonine-protein kinase SIK3 (Homo sapiens) (Q9Y2K2 whole entry, looked up): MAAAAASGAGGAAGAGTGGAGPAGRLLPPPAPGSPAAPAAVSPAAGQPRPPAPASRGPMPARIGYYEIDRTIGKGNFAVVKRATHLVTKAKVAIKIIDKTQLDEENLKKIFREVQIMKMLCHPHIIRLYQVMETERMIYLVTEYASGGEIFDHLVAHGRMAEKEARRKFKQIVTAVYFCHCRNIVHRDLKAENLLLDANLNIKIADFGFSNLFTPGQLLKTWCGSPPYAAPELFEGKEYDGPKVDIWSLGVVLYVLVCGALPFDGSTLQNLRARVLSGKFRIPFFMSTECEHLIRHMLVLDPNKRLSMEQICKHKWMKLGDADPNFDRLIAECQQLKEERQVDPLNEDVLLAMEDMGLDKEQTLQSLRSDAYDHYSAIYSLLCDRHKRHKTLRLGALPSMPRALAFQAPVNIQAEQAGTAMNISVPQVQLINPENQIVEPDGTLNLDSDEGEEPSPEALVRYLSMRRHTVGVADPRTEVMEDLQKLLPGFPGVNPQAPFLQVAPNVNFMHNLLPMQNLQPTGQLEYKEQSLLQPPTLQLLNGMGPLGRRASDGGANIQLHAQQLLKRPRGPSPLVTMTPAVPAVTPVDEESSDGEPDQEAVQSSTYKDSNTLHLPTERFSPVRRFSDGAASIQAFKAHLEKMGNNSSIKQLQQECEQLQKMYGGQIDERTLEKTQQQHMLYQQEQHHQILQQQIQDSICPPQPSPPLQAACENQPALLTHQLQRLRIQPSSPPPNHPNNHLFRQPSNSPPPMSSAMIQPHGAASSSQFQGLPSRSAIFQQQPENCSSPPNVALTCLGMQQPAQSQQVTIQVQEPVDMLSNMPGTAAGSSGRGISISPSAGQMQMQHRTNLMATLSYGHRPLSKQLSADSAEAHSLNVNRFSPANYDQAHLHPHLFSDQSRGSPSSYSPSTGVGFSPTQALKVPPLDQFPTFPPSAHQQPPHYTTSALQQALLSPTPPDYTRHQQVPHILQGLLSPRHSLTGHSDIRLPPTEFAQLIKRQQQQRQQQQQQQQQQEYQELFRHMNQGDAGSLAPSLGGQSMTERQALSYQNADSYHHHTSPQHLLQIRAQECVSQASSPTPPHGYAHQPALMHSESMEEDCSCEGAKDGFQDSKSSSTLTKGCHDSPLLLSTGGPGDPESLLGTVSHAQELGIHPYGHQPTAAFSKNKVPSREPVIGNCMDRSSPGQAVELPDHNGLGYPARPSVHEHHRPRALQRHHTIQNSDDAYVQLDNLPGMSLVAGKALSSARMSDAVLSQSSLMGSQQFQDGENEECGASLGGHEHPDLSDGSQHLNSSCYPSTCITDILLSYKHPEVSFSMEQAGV
Chain of Transcription intermediary factor 1-alpha (Homo sapiens) (O15164 whole entry): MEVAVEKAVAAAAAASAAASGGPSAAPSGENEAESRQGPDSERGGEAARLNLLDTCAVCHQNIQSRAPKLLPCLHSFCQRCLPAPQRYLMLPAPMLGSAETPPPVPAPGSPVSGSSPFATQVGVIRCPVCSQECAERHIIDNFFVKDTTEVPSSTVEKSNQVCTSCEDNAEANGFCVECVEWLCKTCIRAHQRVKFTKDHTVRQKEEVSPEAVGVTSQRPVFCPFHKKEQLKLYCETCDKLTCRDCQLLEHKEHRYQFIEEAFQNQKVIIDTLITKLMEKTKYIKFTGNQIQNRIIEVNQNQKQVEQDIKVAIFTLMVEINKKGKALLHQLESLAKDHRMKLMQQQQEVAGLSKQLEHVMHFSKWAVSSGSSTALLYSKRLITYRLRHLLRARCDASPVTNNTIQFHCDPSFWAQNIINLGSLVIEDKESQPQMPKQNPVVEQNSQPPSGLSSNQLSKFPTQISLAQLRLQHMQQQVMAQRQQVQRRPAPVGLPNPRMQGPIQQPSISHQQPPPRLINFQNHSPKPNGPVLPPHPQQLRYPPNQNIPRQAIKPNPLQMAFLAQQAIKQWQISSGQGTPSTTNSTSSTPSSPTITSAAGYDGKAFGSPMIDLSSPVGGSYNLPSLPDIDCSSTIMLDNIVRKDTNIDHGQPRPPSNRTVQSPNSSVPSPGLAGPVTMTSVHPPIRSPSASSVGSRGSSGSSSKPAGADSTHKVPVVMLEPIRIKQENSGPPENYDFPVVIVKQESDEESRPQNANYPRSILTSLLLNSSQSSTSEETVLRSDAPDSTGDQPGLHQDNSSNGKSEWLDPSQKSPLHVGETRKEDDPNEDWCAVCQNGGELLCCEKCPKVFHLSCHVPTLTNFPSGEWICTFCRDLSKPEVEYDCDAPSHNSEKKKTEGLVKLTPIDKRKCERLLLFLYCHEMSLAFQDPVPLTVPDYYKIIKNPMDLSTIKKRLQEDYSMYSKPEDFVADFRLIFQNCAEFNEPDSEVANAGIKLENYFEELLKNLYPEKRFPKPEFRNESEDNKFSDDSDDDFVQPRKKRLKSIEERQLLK

In turn, `CCN(CC)CCCCNc1ncc2cc(-c3cc(OC)cc(OC)c3)c(NC(=O)NC(C)(C)C)nc2n1` registered a % of control in assay [1] of 100%.

In assay [2], `Cc1cc(F)c(C(=O)Nc2cccc(-c3nncn3C(C)C)n2)cc1-n1cnc(C2CC2)c1` registered a % of control of 100%. With `CC[C@@H]1[C@H](F)C(=O)N[C@@H]1COc1nccc2cc(C(N)=O)c(OC)cc12` [ZIMLOVISERTIB], the % of inhibition in assay [3] (at 0.01 µM) is -11.8%; in assay [3] (at 0.04 µM) it was -4.6%; in assay [3] (at 0.2 µM), -12.7%; in assay [3] (at 1 µM), -24.1%; in assay [3] (at 5 µM), -17.9%. As to `C=CC(=O)Nc1cc(-n2c(=O)ccc3cnc4ccc(-c5ccc(NS(C)(=O)=O)cc5)cc4c32)ccc1C`, the figures for the % of control in assay [4] (at 1 µM), in assay [4] (at 10 µM) and in assay [5] were 95%, 89% and 100%, respectively. With `Cc1cc(CN)cc(C)c1-c1ncn(C)c1-c1cncn1C`, the dTagg in assay [6] was 0.7 K. As to `CN(C)CCCOc1ccc(-c2cc(NCCCn3cccn3)nc(S(C)(=O)=O)n2)cc1`, in assay [7], the dTM is under 2 K.

With `COc1cc(N(C)c2ccnc3ccc(C(F)(F)F)cc23)cc(OC)c1OC`, in assay [8], the % binding was 87%.
